Assay results reported in patent US20130244929A1 (priority 2010, published 2013).
Structures can show the parent of a compound that is named as a salt. Where two headings read alike, the source gives them in different places.

Assays:
SpsB = biological target: T1, SpsB (Staphylococcus aureus, UniProt P0A070); assay: Inhibition of SpsB enzyme activity (fluorescence-based assay, bacterial membrane fraction); assay type: biochemical
T1 construct: using a bacterial membrane fraction as a source of SpsB; from tissue
T1 sequence (P0A070 1-191): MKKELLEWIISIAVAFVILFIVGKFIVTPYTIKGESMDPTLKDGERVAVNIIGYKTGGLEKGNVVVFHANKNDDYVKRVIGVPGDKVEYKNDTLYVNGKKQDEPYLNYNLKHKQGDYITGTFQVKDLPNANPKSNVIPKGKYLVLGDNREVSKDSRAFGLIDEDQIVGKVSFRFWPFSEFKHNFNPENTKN
Method: Signal peptidase enzyme activity was measured in a fluorescence-based assay using a bacterial membrane fraction as a source of SpsB (See Bruton et al., 2003, Eur J Med Chem 38:351-356). The SpsB substrate is a synthetic lipopeptide, decanoyl-K(DABCYL)-TPTAKA↓ASKKD-D(EDANS)—NH2 (prepared by JPT Peptide Technologies, Berlin, Germany). Assays were performed with 20 μM peptide substrate (Km≈5 μM) and reactions were initiated with enzyme addition (final protein concentration of 0.6 mg/mL). SpsB mediated cleavage of the peptide substrate was detected as an increase in fluorescence (excitation 340 nm/emission 460 nm).

[1] = tested on: MB 5393 (COL), a methicillin-resistant S. aureus strain; assay: Determination of minimum and synergistic inhibitory concentration; assay type: cell-based; conditions: for SIC: presence of imipenem (4 μg/mL); for MIC: Staphylococcus aureus
Method: MB 5393 (COL), a methicillin-resistant S. aureus strain, was inoculated into Trypticase Soy Broth (TSB, BBL) and grown in a humidified incubator for 18 hours with rotary shaking at 220 rpm and kept on ice until used.
A quantity of imipenem (Merck Chemical Collection) was weighed out and dissolved into sterile 10 mM MOPS buffer at pH 7. This solution was diluted to 1600 μg/mL, 200 μg/mL, and 25 μg/mL and filter-sterilized through a 0.45 μm filter. From these solutions, seven 1:2 serial dilutions were prepared using sterile 10 mM MOPS buffer at pH 7. The final concentration ranges tested were 128 to 2 μg/mL, 16 to […], and 2 to 0.03 μg/mL. The solutions were kept refrigerated until used.
Test compounds (EXAMPLES 1-67) were prepared in sterile water or DMSO at a concentration of 3.2 mg/mL. From this solution, 11 serial 1:2 dilutions were prepared using sterile water. The final concentration range tested was 64 to 0.0313 μg/mL. The solutions were kept refrigerated until used.
Two-fold serial dilutions of test compounds were tested in the presence and absence of subinhibitory concentrations of imipenem (4 μg/mL) in 96-well U bottom microliter dishes in microbiological growth media. The plates were inoculated with bacterial cells to a final concentration of ˜5×10^5 CFU/mL. Test plates were incubated stationery at 37° C. for 22-24 hours.
After 22 hours of incubation, the Minimum inhibitory concentrations (MICs) were determined, defined as the lowest concentration of antibiotic that prevented all visible growth in the absence of imipenem. Synergistic inhibitory concentrations (SICs) were determined, defined as the lowest concentration of antibiotic that prevented all visible growth in the presence of imipenen.

[2] = MRSA COL, absence of imipenem, 22 hours, read-out: MIC

Row | SMILES | IC50 (SpsB) [µM] | SIC ([1]; MRSA COL, 22 hours) | MIC ([1]; MRSA, 22 h) [mg/L] | MIC [1, 2] [mg/L]
1 | CCCCCCCCCc1ccc(-c2ccc(C(=O)NCCC(=O)N[C@@H](CCCCN)C(=O)N(C)[C@@H]3C(=O)N[C@@H](C)C(=O)N[C@H](C(=O)O)Cc4ccc(O)c(c4)-c4cc3ccc4O)nc2)cc1 [EXAMPLE 32] | < 0.01 | G (G: SIC <0.0625) | < 1 | 
2 | CCCCCCCCCc1ccc(-c2ncc(C(=O)NCCC(=O)N[C@@H](CCCCN)C(=O)N(C)[C@@H]3C(=O)N[C@@H](C)C(=O)N[C@H](C(=O)O)Cc4ccc(O)c(c4)-c4cc3ccc4O)cn2)cc1 [EXAMPLE 26] | < 0.01 | G (G: SIC <0.0625) | < 1 | 
3 | CCCCCCCCCc1ccc(-c2ccc(C(=O)NCCC(=O)N3C[C@@H](N)C[C@H]3C(=O)N(C)[C@@H]3C(=O)N[C@@H](C)C(=O)N[C@H](C(=O)O)Cc4ccc(O)c(c4)-c4cc3ccc4O)cc2)cc1 [EXAMPLE 44] | < 0.01 | G (G: SIC <0.0625) | < 1 | 
4 | CCCCCCCCCc1ccc(-c2ccc(C(=O)NCCC(=O)N[C@@H](CCCCN)C(=O)N(C)[C@@H]3C(=O)N[C@@H](C)C(=O)N[C@H](C(=O)O)Cc4ccc(O)c(c4)-c4cc3ccc4O)cc2)cc1.O=C(O)C(F)(F)F [EXAMPLE 16, (5S)-6-[[(7S,10S,13S)-13-carboxy-3,18-dihydroxy-10-methyl-8,11-dioxo-9,12-diazatricyclo[13.3.1.1^2,6]icosa-1(19),2(20),3,5,15,17-hexaen-7-yl](methyl)amino]-5-[(3-{[(4′-nonylbiphenyl-4-yl)carbonyl]amino}propanoyl)amino]-6-oxohexan-1-aminium trifluoroacetate] | < 0.01 | G (G: SIC <0.0625) |  | < 1
5 | CCCc1ccc(-c2ccc(C(=O)NCCC(=O)N[C@H](CCCCN)C(=O)N(C)[C@@H]3C(=O)N[C@@H](C)C(=O)N[C@H](C(=O)O)Cc4ccc(O)c(c4)-c4cc3ccc4O)cc2)cc1.O=C(O)C(F)(F)F [EXAMPLE 4, (5R)-6-[[(7S,10S,13S)-13-carboxy-3,18-dihydroxy-10-methyl-8,11-dioxo-9,12-diazatricyclo[13.3.1.1^2,6]icosa-1(19),2(20),3,5,15,17-hexaen-7-yl](methyl)amino]-6-oxo-5-[(3-{[(4′-propylbipherryl-4-yl)carbonyl]amino}propanoyl)amino]hexan-1-aminium trifluoroacetate] | > 0.05 | I (I: SIC >1) |  | > 8
6 | CCCCCCCc1ccc2cc(C(=O)NCCC(=O)N[C@@H](CCCCN)C(=O)N(C)[C@@H]3C(=O)N[C@@H](C)C(=O)N[C@H](C(=O)O)Cc4ccc(O)c(c4)-c4cc3ccc4O)cnc2c1 [EXAMPLE 61] | 0.01 to 0.05 | H (H: SIC 0.062-1) | < 1 | 
7 | CCCCCCCCc1ccc(-c2ccc(C(=O)NCCC(=O)N[C@@H](CCCCN)C(=O)N(C)[C@@H]3C(=O)N[C@@H](C)C(=O)N[C@H](C(=O)O)Cc4ccc(O)c(c4)-c4cc3ccc4O)cc2)cc1 [EXAMPLE 23] | < 0.01 | G (G: SIC <0.0625) | < 1 | 
8 | CCCCCCCCCc1ccc(-c2ccc(C(=O)NCCC(=O)N[C@@H](CCCCN)C(=O)N(C)[C@@H]3C(=O)N[C@@H](C)C(=O)N[C@H](C(=O)O)Cc4ccc(O)c(c4)-c4cc3ccc4O)c(O)c2)cc1 [EXAMPLE 39] | < 0.01 | G (G: SIC <0.0625) | < 1 | 
9 | CCCCc1ccc(-c2ccc(C(=O)NCCC(=O)N[C@@H](CCCCN)C(=O)N(C)[C@@H]3C(=O)N[C@@H](C)C(=O)N[C@H](C(=O)O)Cc4ccc(O)c(c4)-c4cc3ccc4O)cc2)cc1 [EXAMPLE 51] | < 0.01 | G (G: SIC <0.0625) | < 1 | 
10 | CCCCCCCCCc1ccc(-c2ncc(C(=O)NCCC(=O)N[C@@H](CCCCN(C)C)C(=O)N(C)[C@@H]3C(=O)N[C@@H](C)C(=O)N[C@H](C(=O)O)Cc4ccc(O)c(c4)-c4cc3ccc4O)cn2)cc1 [EXAMPLE 34] | < 0.01 | G (G: SIC <0.0625) | < 1 | 
11 | CCCCCCCCCc1ccc(-c2ccc(C(=O)NCCC(=O)N[C@@H](CCCCO)C(=O)N(C)[C@@H]3C(=O)N[C@@H](C)C(=O)N[C@H](C(=O)O)Cc4ccc(O)c(c4)-c4cc3ccc4O)cc2)cc1 [EXAMPLE 50] | < 0.01 | H (H: SIC 0.062-1) |  | > 8
12 | CCCc1ccc(-c2ccc(C(=O)NCCC(=O)N3CCC[C@@H]3C(=O)N(C)[C@@H]3C(=O)N[C@@H](C)C(=O)N[C@H](C(=O)O)Cc4ccc(OC)c(c4)-c4cc3ccc4OC)cc2)cc1 [EXAMPLE 13, (8S,11S,14S)-3,18-dimethoxy-11-methyl-14-(methyl{[(2R)-1-(3-{[(4′-propylbiphenyl-4-yl)carbonyl]amino}propanoyl)pyrrolidin-2-yl]carbonyl}amino)-10,13-dioxo-9,12-diazatricyclo[13.3.1.1^2,6]icosa-1(19),2(20),3,5,15,17-hexaene-8-carboxylic acid] | > 0.05 | I (I: SIC >1) |  | > 8
13 | CCCc1ccc(-c2ccc(C(=O)NCCC(=O)N[C@@H](CCCNC(=N)N)C(=O)N(C)[C@@H]3C(=O)N[C@@H](C)C(=O)N[C@H](C(=O)O)Cc4ccc(O)c(c4)-c4cc3ccc4O)cc2)cc1.O=C(O)C(F)(F)F [EXAMPLE 8, ({(4S)-5-[[(7S,10S,13S)-13-carboxy-3,18-dihydroxy-10-methyl-8,11-dioxo-9,12-diazatricyclo[13.3.1.1^2,6]icosa-1(19),2(20),3,5,15,17-hexaen-7-yl](methyl)amino]-5-oxo-4-[(3-{[(4′-propylbiphenyl-4-yl)carbonyl]amino}propanoyl)amino]pentyl}amino)(imino)methanaminium trifluoroacetate] | 0.01 to 0.05 | H (H: SIC 0.062-1) |  | 1 to 8
14 | CCCCCCCCCc1ccc(-c2cnc(C(=O)NCCC(=O)N[C@@H](CCCCN)C(=O)N(C)[C@@H]3C(=O)N[C@@H](C)C(=O)N[C@H](C(=O)O)Cc4ccc(O)c(c4)-c4cc3ccc4O)nc2)cc1 [EXAMPLE 63] | 0.01 to 0.05 | G (G: SIC <0.0625) | < 1 | 
15 | CCCCCCCCCc1ccc(-c2ccc(C(=O)NCCC(=O)N[C@@H](CCCCN)C(=O)N(C)[C@@H]3C(=O)N[C@@H](C)C(=O)N[C@H](C(=O)O)Cc4ccc(O)c(c4)-c4cc3ccc4O)c3ccccc23)cc1 [EXAMPLE 52] | < 0.01 | G (G: SIC <0.0625) | 1 to 8 | 
16 | C[C@@H]1NC(=O)[C@@H](N(C)C(=O)[C@H](CCCCN)NC(=O)CCNC(=O)c2ccc(-c3ccc(C4C5CC6CC(C5)CC4C6)cc3)cc2)c2ccc(O)c(c2)-c2cc(ccc2O)C[C@@H](C(=O)O)NC1=O (stereo partly drawn) [EXAMPLE 21] | < 0.01 | G (G: SIC <0.0625) | < 1 | 
17 | CCCCCCCCCc1ccc(-c2ccc3sc(C(=O)NCCC(=O)N[C@@H](CCCCN)C(=O)N(C)[C@@H]4C(=O)N[C@@H](C)C(=O)N[C@H](C(=O)O)Cc5ccc(O)c(c5)-c5cc4ccc5O)cc3c2)cc1 [EXAMPLE 45] | < 0.01 | G (G: SIC <0.0625) | 1 to 8 | 
18 | CCC[C@H]1CC[C@H](c2ccc(-c3ccc(C(=O)NCCC(=O)N[C@@H](CCCCN)C(=O)N(C)[C@@H]4C(=O)N[C@@H](C)C(=O)N[C@H](C(=O)O)Cc5ccc(O)c(c5)-c5cc4ccc5O)cc3)cc2)CC1 [EXAMPLE 46] | < 0.01 | G (G: SIC <0.0625) | < 1 | 
19 | CCCCc1ccc(C#Cc2ccc(C(=O)NCCC(=O)NC(CCCCN)C(=O)N(C)[C@@H]3C(=O)N[C@@H](C)C(=O)N[C@H](C(=O)O)Cc4ccc(OC)c(c4)-c4cc3ccc4OC)cc2)cc1 (stereo partly drawn) [EXAMPLE 10, 5-{[3-({4-[(4-butylphenyl)ethynyl]benzoyl}amino)propanoyl]amino}-6-[[(7S,10S,13S)-13-carboxy-3,18-dimethoxy-10-methyl-8,11-dioxo-9,12-diazatricyclo[13.3.1.1^2,6]icosa-1(19),2(20),3,5,15,17-hexaen-7-yl](methyl)amino]-6-oxohexart-1-aminium trifluoroacetate] | < 0.01 | H (H: SIC 0.062-1) |  | 1 to 8
